According to ChEMBL document CHEMBL1201862, “PubChem BioAssay data set” (2004):
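Where inhibition never reached the appropriate level, the endpoint shown equals the highest concentration tested. Otherwise, values were interpolated linearly from a five-concentration, 48-hour dose response in 96-well plates. GI50 marks 50% less growth.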 The source made the active and inactive calls. Rule as the data show it: active = GI50 up to about 1.1 µM and inactive = higher.

Key:
Test in all cases: NCI tumour cell line growth inhibition, 48 h
EKVX = tested on: EKVX
Hs-578T = tested on: Hs-578T
K562 = tested on: K562
HOP-92 = tested on: HOP-92
OVCAR-3 = tested on: OVCAR-3
NCI-H522 = tested on: NCI-H522
SF-539 = tested on: SF-539
Malme-3M = tested on: Malme-3M
U-251 = tested on: U-251
ACHN = tested on: ACHN
SW-620 = tested on: SW-620
RPMI-8226 = tested on: RPMI-8226
HCC 2998 = tested on: HCC 2998
MOLT-4 = tested on: MOLT-4
HCT-116 = tested on: HCT-116
M14 = tested on: M14
TK-10 = tested on: TK-10
OVCAR-5 = tested on: OVCAR-5
786-0 = tested on: 786-0
SF-295 = tested on: SF-295

Row | Structure (SMILES) | GI50 (EKVX) | GI50 (Hs-578T) | GI50 (K562) | GI50 (HOP-92) | GI50 (OVCAR-3) | GI50 (NCI-H522) | GI50 (SF-539) | GI50 (Malme-3M) | GI50 (U-251) | GI50 (ACHN) | GI50 (SW-620) | GI50 (RPMI-8226) | GI50 (HCC 2998) | GI50 (MOLT-4) | GI50 (HCT-116) | GI50 (M14) | GI50 (TK-10) | GI50 (OVCAR-5) | GI50 (786-0) | GI50 (SF-295)
1 | Cc1cc2ccccc2n1CC(=O)N1CCCC1 | > 100 µM (inactive) | > 100 µM (inactive) | > 100 µM (inactive) | > 100 µM (inactive) | > 100 µM (inactive) | > 100 µM (inactive) | > 100 µM (inactive) | > 100 µM (inactive) | > 100 µM (inactive) | > 100 µM (inactive) | > 100 µM (inactive) | > 100 µM (inactive) | > 100 µM (inactive) | > 100 µM (inactive) | > 100 µM (inactive) | > 100 µM (inactive) | > 100 µM (inactive) | > 100 µM (inactive) | > 100 µM (inactive) | 
2 | CCN(CCN(CC)C(=O)NC)C(=O)NC | > 100 µM (inactive) | > 100 µM (inactive) | > 100 µM (inactive) | > 100 µM (inactive) |  | > 100 µM (inactive) |  | > 100 µM (inactive) | > 100 µM (inactive) | > 100 µM (inactive) | > 100 µM (inactive) | > 100 µM (inactive) | > 100 µM (inactive) | > 100 µM (inactive) | > 100 µM (inactive) | > 100 µM (inactive) | > 100 µM (inactive) | > 100 µM (inactive) | > 100 µM (inactive) | > 100 µM (inactive)
3 | O=C(O)c1ccc(S(=O)(=O)c2ccccc2[N+](=O)[O-])cc1 | > 10 µM (inactive) | > 10 µM (inactive) | > 10 µM (inactive) |  | > 10 µM (inactive) | > 10 µM (inactive) | > 10 µM (inactive) | > 10 µM (inactive) | > 10 µM (inactive) | > 10 µM (inactive) | > 10 µM (inactive) | > 10 µM (inactive) | > 10 µM (inactive) | > 10 µM (inactive) | > 10 µM (inactive) | > 10 µM (inactive) | > 10 µM (inactive) | > 10 µM (inactive) | > 10 µM (inactive) | > 10 µM (inactive)
4 | COC(=O)C12CCC(C(F)(F)C1=O)C2(C)C (stereo not drawn) |  | > 100 µM (inactive) |  | > 100 µM (inactive) | > 100 µM (inactive) | > 100 µM (inactive) | > 100 µM (inactive) | > 100 µM (inactive) | > 100 µM (inactive) | > 100 µM (inactive) | > 100 µM (inactive) | > 100 µM (inactive) | > 100 µM (inactive) | > 100 µM (inactive) | > 100 µM (inactive) | > 100 µM (inactive) | > 100 µM (inactive) | > 100 µM (inactive) | > 100 µM (inactive) | > 100 µM (inactive)
5 | CCCCN1C(=O)C2Cc3c([nH]c4ccccc34)C(c3cccc(O)c3)N2C1=O (stereo not drawn) | 17.9 µM (inactive) | 27.9 µM (inactive) | 20.2 µM (inactive) | 19.2 µM (inactive) | 16.3 µM (inactive) | 20 µM (inactive) | 18.8 µM (inactive) |  | 19 µM (inactive) | 19.8 µM (inactive) | 19.9 µM (inactive) | 23.1 µM (inactive) | 18.9 µM (inactive) | 26.7 µM (inactive) | 18.7 µM (inactive) | 18.3 µM (inactive) | 18.3 µM (inactive) | 18.8 µM (inactive) | 18.9 µM (inactive) | 17.4 µM (inactive)
6 | C#CCSC(C=C=C)P(=O)(OC(C)C)OC(C)C (stereo not drawn) | > 100 µM (inactive) | 12.9 µM (inactive) | 23.7 µM (inactive) | > 100 µM (inactive) | > 100 µM (inactive) | 23.3 µM (inactive) |  | 31.4 µM (inactive) | > 100 µM (inactive) | 42.8 µM (inactive) | 37.4 µM (inactive) | 30.3 µM (inactive) | 28.4 µM (inactive) | 21.5 µM (inactive) | 27 µM (inactive) | > 100 µM (inactive) | 43.2 µM (inactive) | > 100 µM (inactive) | 46.2 µM (inactive) | > 100 µM (inactive)
7 | Cc1cccc(Nc2cn(COCc3ccccc3)c(=O)[nH]c2=O)c1 | 15.3 µM (inactive) | 49.3 µM (inactive) | > 100 µM (inactive) | > 100 µM (inactive) | > 100 µM (inactive) | 10.2 µM (inactive) |  |  | > 100 µM (inactive) | > 100 µM (inactive) | > 100 µM (inactive) | 38.8 µM (inactive) | > 100 µM (inactive) | > 100 µM (inactive) | 90.8 µM (inactive) | > 100 µM (inactive) |  | > 100 µM (inactive) | > 100 µM (inactive) | 72.1 µM (inactive)
8 | C/C=C1/C[C@@H](C)[C@@](C)(O)C(=O)OCC2=CC[N+]3([O-])CC[C@@H](OC1=O)[C@@H]23 (stereo partly drawn) [SENECIONINE N-OXIDE] | > 100 µM (inactive) | > 100 µM (inactive) | 0.0482 µM (active) | > 100 µM (inactive) | > 100 µM (inactive) | > 100 µM (inactive) | > 100 µM (inactive) | 94.6 µM (inactive) | > 100 µM (inactive) | > 100 µM (inactive) | > 100 µM (inactive) |  | > 100 µM (inactive) | > 100 µM (inactive) | > 100 µM (inactive) | > 100 µM (inactive) | > 100 µM (inactive) | > 100 µM (inactive) | > 100 µM (inactive) | > 100 µM (inactive)
